According to US10261017B2, “Methods for detecting and categorizing skin sensitizers” (University of Mississippi, priority 2014, dated 2019):
“And” between values parts separate entries of the source, which are not always exact repeats. Identical values can stand only once. Like-named read-outs stand apart in the source and are kept apart here. Marks after values point to notes of the source that are not given here.

Legend:
thiol peptide [1] = test: Cys-DPRA (Direct Peptide Reactivity Assay), literature data; settings: for Cys-DPRA binary classification: FN: false negative; for Cys-DPRA binary classification: FP: false positive; for Cys-DPRA binary classification: TN: true negative; for Cys-DPRA binary classification: TP: true positive
[2] = cited from earlier work
thiol peptide [3] = settings: cited from earlier work
[4] = pH 10
[5] = system: ARE-dependent gene activity in a recombinant cell line; settings: cited from earlier work
[6] = NMR method: depletion of electrophile signal on reaction with DCYA
From the text: The described example can be applied to pure chemicals and mixtures. The method includes the acquisition of at least one NMR spectrum, mixing an electrophile and a nucleophile to acquire an array of control spectra and an addition of catalyst to record an array of reaction spectra. It also includes the quantification of at least one signal and the comparison of the signal with a control and the classification of the reaction based on the depletion of potential sensitizer based on the quantified residual signal.
2,5-Dimethylfuran was used as internal standard. When necessary, characterization of the product(s) formed during the reaction(s) was performed by homonuclear ^1H connectivities using 2D-COSY experiments. […] Two- and three bond ^1H-^13C connectivities were determined by gradient-HMBC experiments in which the evolution period for long-range ^1H-^13C coupling constants was optimized for a ^2,3JC,H of 8 Hz. Through-space ^1H connectivities were determined using a NOESY experiment with a mixing time of 0.450 s. […] Toronto, Canada].
In a 3 mm NMR tube, 1 volume of DCYA (100) mM in CDCl3) was mixed with one volume of sensitizer (100 mM in CDCl3) to give a final concentration of 50 mM for both DCYA and the sensitizer. Control ^1H NMR spectra (reference spectra) were recorded at regular intervals of for a minimum of 5 min. […] All spectra were recorded at constant temperature. All experiments were conducted using the manufacturer's standard presaturation pulse programs and experimental conditions were chosen as explained in NMR spectroscopy section. The progress of the reaction was followed by the diminished peak areas of the resonances for the signal of interest. The spectra were phased, referenced, and integrated using NMR data elaboration software. The structural characterizations of the resulting adducts were confirmed by conducting additional 2D-NMR experiments when necessary.
Covalent reaction of DCYA with carvone is dependent on the activation of the nucleophilic group (ex. sulfhydryl group to the reactive thio-anion) under basic conditions. This reaction is strongly dependent on the nature of the nucleophile and may be modulated by careful choice of the model nucleophile and the reaction conditions.
The control spectra are used as reference spectra (FIG. 3A). All the spectra were subjected to automatic phase and baseline correction using a Bernstein polynomial fit (order 3). After these two steps, all the spectra were integrated over the areas of interest. […] Both vinylic and adduct peak areas were normalized relative to the internal standard signal peaks. […] The concentrations of both electrophile and adduct were then plotted as percentage against time (in minutes). (FIG. 5).

[7] = cited from earlier work; remark: listed apart in the source
thiol peptide [8] = system: thiol peptide
[9] = Microplate spectrophotometric method (DCYA assay), fluorescence end-point; settings: for DCYA 100-RI: RI = reactivity index, 2 equiv. electrophile, pH 10 buffer; for DCYA binary classification: FN: false negative; for DCYA binary classification: FP: false positive; for DCYA assay reactivity / classification in words: microplate spectrophotometric method; for DCYA binary classification: TN: true negative; for DCYA binary classification: TP: true positive, positive if 100-RI <95; for Fluorescence response, Reaction (R), average of 9 readings: DCYA + test article + pH 10 buffer + resin
[10] = Fluorescent response of DCYA in acetonitrile over time; assay type: physicochemical; settings: micromolar solutions, after 3 h at room temperature
Method: The fluorescent responses of DCYA and DCYA disulfide in ACN were investigated at different concentrations using 1-300 μL/well in a 96 microplate reader at room temperature. Pure acetonitrile was used as a solvent control. The optimum excitation and emission wavelength combination was determined by performing excitation and emission scans. […] At these wavelengths, no solvent interference was observed. […] A linear response for DCYA was observed between 5-80 μM ([…]) concentrations with a R^2=0.995.

[11] = TLC monitoring of DCYA reactions with electrophiles; settings: pH 10 buffer, 1-2.5 equiv. electrophile
From the text: For visualization purposes, the controls, blank and reactions were monitored by TLC on silica gel plates. A known volume of each sample was loaded on a silica gel plate and eluted with appropriate solvent system. The TLC plates were examined λ366 for the presence of the yellow fluorescence spots corresponding DCYA, its dimer or possible reaction products.
In order to minimize the competition between auto-dimerization [(DCYA)2] and nucleophilic addition, the reaction time and the electrophile:nucleophile stoichiometry were optimized. Massoia lactone at different concentrations was used to monitor the progress of the reaction by TLC (FIG. 11). […] In order to adequately discriminate between compounds with variable electrophilic strength, the assay was optimized using 2 equivalents of electrophile.

[12] = reported results from the literature
[13] = conversion of test chemical at 90 min, 1 equiv. DCYA, 0.1 equiv. DBN, CDCl3
[14] = based on depletion of electrophile signal at 30 min
[15] = effective concentration, published literature (Table 1)

Structure (SMILES): Cn1sccc1=O [2-Methyl-4-isothiazolin-3-one]
- Cys-DPRA binary classification: FN (thiol peptide [1]): 0
- Cys-DPRA binary classification: FP (thiol peptide [1]): 0
- Cys-DPRA binary classification: TN (thiol peptide [1]): 0
- Cys-DPRA binary classification: TP (thiol peptide [1]): 1
- LLNA EC3 ([2]; reported results (Table 7)): 1.9%
- Cys-DPRA % Pept. remain. (thiol peptide [3]; [12]): 2.1%
- DCYA 100-RI ([4]; 2.1 mM): 16.4
- DCYA binary classification: FN ([4]; 2.1 mM): 0
- DCYA binary classification: FP ([4]; 2.1 mM): 0
- DCYA binary classification: TN ([4]; 2.1 mM): 0
- DCYA binary classification: TP ([4]; 2.1 mM): 1
- KeratinoSens ™ EC3 ([5]; reported results (Table 7)): 29.56 µM

Structure (SMILES): OCCc1ccc(O)c(O)c1 [3-Hydroxytyrosol]
- LLNA (EC3) ([2]; mouse, in vivo): 0.6%
- LLNA Classification ([2]; mouse, in vivo): Strong
- LLNA EC3 ([2]; mouse, in vivo): 0.6%
- Cys-DPRA reactivity in words (thiol peptide [3]): non-reactive
- NMR Classification [6]: Non^$
- NMR assay reactivity / classification in words [6]: almost unreactive
- Conversion at t30 (depletion of electrophile signal) ([6]; at 30 min, 1 equiv. DCYA): 6%
- NMR Method conversion [6, 13]: 6%
- DCYA 100-RI ([4]; 2.1 mM): 97.2

Structure (SMILES): C=C1C(=O)O[C@@H]2C[C@@]3(C)CCC[C@H](C)C3=C[C@H]12 [Alantolactone]
- Conversion at t30 (depletion of electrophile signal) [6]: 99%
- NMR Classification [6]: Strong
- NMR Method conversion [6]: >99* %
- DCYA 100-RI [4]: −6.7
- Result in human patch tests ([7]; in vivo): Positive in human patch tests^6

Structure (SMILES): O=CC=Cc1ccccc1 [Cinnamaldehyde]
- LLNA (EC3) ([2]; mouse, in vivo): 3%
- LLNA Classification ([2]; mouse, in vivo): Moderate
- LLNA EC3 ([2]; mouse, in vivo): 3%
- Cys-DPRA % Pept. remain. (thiol peptide [3]): 29.4%
- Cys-DPRA, percentage of thiol peptide depleted (thiol peptide [3]): 70.6%
- NMR Classification [6]: Moderate
- NMR assay reactivity / classification in words [6]: moderate sensitizer
- Conversion at t30 (depletion of electrophile signal) ([6]; at 30 min, 1 equiv. DCYA): 50%
- NMR Method conversion [6, 13]: 50%
- Cys-DPRA binary classification: FN (thiol peptide [8]): 0
- Cys-DPRA binary classification: FP (thiol peptide [8]): 0
- Cys-DPRA binary classification: TN (thiol peptide [8]): 0
- Cys-DPRA binary classification: TP (thiol peptide [8]): 1
- DCYA 100-RI ([4]; 2.1 mM): 85.1
- DCYA binary classification: FN ([4]; 2.1 mM): 0
- DCYA binary classification: FP ([4]; 2.1 mM): 0
- DCYA binary classification: TN ([4]; 2.1 mM): 0
- DCYA binary classification: TP ([4]; 2.1 mM): 1
- KeratinoSens ™ EC3 [5]: 63.94 µM

Structure (SMILES): C=C1C(=O)O[C@@H]2/C=C(\C)CC/C=C(\C)CC[C@@H]12 [Costunolide]
- NMR Classification [6]: Strong
- NMR Method conversion ([6]; 10 min, 50 mM): >97* %
- Conversion at t30 (depletion of electrophile signal) ([6]; 30 min, 50 mM): 97%
- Result in human patch tests ([7]; reported in literature): Positive in human patch tests^6
- DCYA 100-RI [9]: −8.5
- DCYA binary classification: FN [9]: 0
- DCYA binary classification: FP [9]: 0
- DCYA assay reactivity / classification in words [9]: strongly reactive
- DCYA assay reactivity / classification in words ([9]; listed as costunolide): strong sensitizers
- DCYA binary classification: TN [9]: 0
- DCYA binary classification: TP [9]: 1

Structure (SMILES): O=c1ccc2ccccc2o1 [Coumarin]
- Cys-DPRA binary classification: FP (thiol peptide [1]): 0
- Cys-DPRA binary classification: TN (thiol peptide [1]): 1
- Cys-DPRA binary classification: TP (thiol peptide [1]): 0
- NMR assay reactivity / classification in words [6]: almost unreactive
- Conversion at t30 (depletion of electrophile signal) ([6]; 30 min, 50 mM): 0%
- NMR Method conversion ([6]; 90 min, 50 mM): 0%
- NMR Classification [6, 14]: Non
- Cys-DPRA binary classification: FN (thiol peptide [8]): 0
- Fluorescence response, Reaction (R), average of 9 readings [9]: 1996.775 RFU
- DCYA 100-RI [9]: 97.2
- DCYA binary classification: FN [9]: 0
- DCYA binary classification: FP [9]: 0
- DCYA binary classification: TN [9]: 1
- DCYA binary classification: TP [9]: 0

Structure (SMILES): CN(C)c1cccc2c(S(=O)(=O)NCCS)cccc12 [DCYA, 5-(dimethylamino)-N-(2-mercaptoethyl)naphthalene-1-sulfonamide]
- Loss of fluorescence response [10]: 1.5-3.0%

Structure (SMILES): CCCCC[C@@H]1CC=CC(=O)O1 [Massoia lactone]
- NMR assay reactivity / classification in words [6]: moderate to strong skin sensitizer
- Conversion at t30 (depletion of electrophile signal) ([6]; at 30 min, 1 equiv. DCYA, listed as Massoialactone): 59%
- Conversion at t30 (depletion of electrophile signal) ([6]; at 30 min, 1 equiv. DCYA, listed as massoia lactone): 60%
- NMR Classification [6, 14]: Moderate-strong
- NMR Method conversion [6, 13]: 66%
- TLC: adduct formation with DCYA [11]: only a partial reaction was achieved
- Fluorescence response, Reaction (R), average of 9 readings ([9]; listed as ML): 6064.127 RFU and 6064 RFU
- DCYA 100-RI [9]: 12.8

Structure (SMILES): C=C(C)C1CC=C(C=O)CC1 (stereo not drawn) [Perillaldehyde]
- Cys-DPRA binary classification: FN (thiol peptide [1]): 0
- Cys-DPRA binary classification: FP (thiol peptide [1]): 0
- Cys-DPRA binary classification: TN (thiol peptide [1]): 0
- Cys-DPRA binary classification: TP (thiol peptide [1]): 1
- LLNA (EC3) [2, 15]: 8.1%
- LLNA Classification ([2]; published literature): Moderate
- LLNA EC3 ([2]; reported results (Table 7)): 8.1%
- Cys-DPRA, percentage of thiol peptide depleted (thiol peptide [3]; adopted from the literature): 31.9%
- Cys-DPRA % Pept. remain. (thiol peptide [3]; [12]): 68.1%
- NMR assay reactivity / classification in words [6]: moderate/low electrophilic behavior
- Conversion at t30 (depletion of electrophile signal) ([6]; at 30 min, 1 equiv. DCYA): 28%
- NMR Classification [6, 14]: Weak-moderate
- NMR Method conversion [6, 13]: 28%
- KeratinoSens ™ EC3 ([5]; published literature (Table 1)): 61.85 µM
- KeratinoSens ™ EC3 ([5]; reported results (Table 7)): 61.85 µM
- DCYA 100-RI [9]: 95.8
- DCYA binary classification: FN [9]: 1
- DCYA binary classification: FP [9]: 0
- DCYA binary classification: TN [9]: 0
- DCYA binary classification: TP [9]: 0

Structure (SMILES): O=c1c(O)c(O)c1=O [Squaric acid]
- LLNA EC3 ([2]; mouse, in vivo): 4.3%
- Cys-DPRA % Pept. remain. (thiol peptide [3]): 53.1%
- Cys-DPRA binary classification: FN (thiol peptide [8]): 0
- Cys-DPRA binary classification: FP (thiol peptide [8]): 0
- Cys-DPRA binary classification: TN (thiol peptide [8]): 0
- Cys-DPRA binary classification: TP (thiol peptide [8]): 1
- DCYA 100-RI [4]: 91.1
- KeratinoSens ™ EC3 [5]: >2000 µM

Structure (SMILES): O=C1C=CC(=O)C=C1 [p-Benzoquinone]
- Cys-DPRA binary classification: FN (thiol peptide [1]): 0
- Cys-DPRA binary classification: FP (thiol peptide [1]): 0
- Cys-DPRA binary classification: TN (thiol peptide [1]): 0
- Cys-DPRA binary classification: TP (thiol peptide [1]): 1
- LLNA (EC3) [2, 15]: 0.01%
- LLNA Classification ([2]; published literature): Extreme
- LLNA EC3 ([2]; reported results (Table 7)): 0.01%
- Cys-DPRA, percentage of thiol peptide depleted (thiol peptide [3]; adopted from the literature): 99.0%
- Cys-DPRA % Pept. remain. (thiol peptide [3]; [12]): 1%
- NMR assay reactivity / classification in words [6]: high reactivity
- Depletion in less than five minutes ([6]; NMR, less than five minutes): > 95%
- Conversion at t30 (depletion of electrophile signal) ([6]; at 30 min, 1 equiv. DCYA): 95%
- NMR Classification [6, 14]: Strong
- NMR Method conversion [6, 13]: 95^# %
- KeratinoSens ™ EC3 ([5]; published literature (Table 1)): 32.77 µM
- KeratinoSens ™ EC3 ([5]; reported results (Table 7)): 32.77 µM
- DCYA 100-RI [9]: 34.5
- DCYA binary classification: FN [9]: 0
- DCYA binary classification: FP [9]: 0
- DCYA assay reactivity / classification in words [9]: correctly identified as a sensitizer
- DCYA binary classification: TN [9]: 0
- DCYA binary classification: TP [9]: 1
